How the values were obtained:
[1] = system: cultured adult rat retinal ganglion cells; experiment: Glutamate-induced toxicity in cultured adult rat retinal ganglion cells (survival by counting Thy-1-positive healthy cells); format: cell-based
Description: Cells were treated with the indicated compounds for 3 days. Survival was assayed by counting Thy-1-positive healthy cells. The asterisk * represents a significant difference from the control values by one-way ANOVA analysis of variance between groups, then Dunnett's test.
Adult Sprague-Dawley rats were euthanized by CO2 asphyxiation. Their eyes were enucleated and placed in NEUROBASAL™ medium (Gibco, Gaithersburg, Md.). The retina from each eye was detached and isolated. Retinal cells were dissociated by combining up to 20 retinae with 5 mL of papain solution containing 10 mg papain, 2 mg DL-cysteine, and 2 mg bovine serum albumin in 5 ml of NEUROBASAL™ medium, for 25 min at 37° C., then washed 3 times with 5 mL RGC medium (NEUROBASAL™) medium supplemented as cited in Example 2 and with 1% fetal calf serum. Retinal pieces were triturated by passing through a fire-polished disposable pipet several times until cells were dispersed. The cell suspension was placed onto a poly-D-lysine- and laminin-coated 8-well chambered culture slide. […] The cells were then cultured at 95% air/5% CO2 at 37° C. for three days.
At the end of the incubation period, the cells were fixed and labeled for Thy-1, a RGC marker, by immunocytochemistry. Cell survival was quantified by manually counting Thy-1-positive healthy cells in each well.

[2] = system: quinone reductase, glutathione-S-transferase, and glutathione reductase; details: various cell lines including human adult retinal pigment epithelial cells; cited from earlier work

SMILES	reduction of the surviving cells ([1]; glutamate 100 μM for 3 days, adult rat RGC)	induction of detoxification enzymes [2]	protection from glutamate-induced toxicity (survival of Thy-1-positive healthy cells) ([1]; sulforaphane 0.5 μM with glutamate 100 μM, 3 days, adult Sprague-Dawley rat RGC)
N[C@@H](CCC(=O)O)C(=O)O [glutamate]	40-60%	–	–
C[S+]([O-])CCCCN=C=S (stereo not drawn) [sulforaphane]	–	known to induce quinone reductase, glutathione-S-transferase, and glutathione reductase	prevented such toxicity
